Reference: PubChem BioAssay AID1194 (EPA DSSTox, 2008)
Active and inactive are the calls of the source.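 How the source made its calls: active means chemicals rated mutagenic or weakly mutagenic in the Salmonella bacterial test by one literature review, or positive overall by another; inconclusive means no clear call, values can overlap the other calls; inactive means the rest.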

What follows are molecules tested on Salmonella typhimurium Ames mutagenicity, literature compiled (assay: DSSTox (CPDBAS) Carcinogenic Potency Database Salmonella Mutagenicity).
In short: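 Literature-compiled Salmonella result: chemical called active if rated overall "mutagenic" or "weakly mutagenic" by Zeiger or overall "positive" by the EPA Gene-Tox Program.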

SMILES	outcome
CC(C)=CCC/C(C)=C/C=O	inactive; active
Oc1c(Cl)cc(Cl)c(Cl)c1Cc1c(O)c(Cl)cc(Cl)c1Cl	inactive; active
COP(=O)(OC)OC=C(Cl)Cl	active; inactive
C[C@]12CC[C@@H]3c4ccc(O)cc4CC[C@H]3[C@@H]1CC[C@@H]2O	inactive
C=CC(=O)c1ccc2c(c1)OCO2	inactive; active
O=C(O)C1[O][Sb]2[O]C(=O)C([O]2)C(C(=O)O)[O][Sb]2[O]C(=O)C1[O]2 (configuration not stated)	inactive
CC(=O)Nc1ccc2c(c1)Cc1ccccc1-2	active
OO	active
CCCN(CCC)S(=O)(=O)c1ccc(C(=O)O)cc1	inactive; active
O=C1c2ccccc2-c2ccc3c4c(ccc1c24)-c1ccccc1C3=O	inactive; active
Cc1cc(N=Nc2c(O)ccc3ccccc23)c(S(=O)(=O)O)cc1Cl	active
CCN(CC)C(=S)S	inactive
O=NN1CCOCC1	active
O=NN1CCCCCCCCCCCC1	active; inactive
ClC1=C(Cl)[C@]2(Cl)[C@@H]3[C@H]4C=CC(C4)[C@@H]3C1(Cl)C2(Cl)Cl	inactive; active
CC(I)C1OCC(CO)O1 (configuration not stated)	active
OCc1ccco1	inactive; active
CCN(CC)N=O	active; inactive
CC1CN(N=O)CC(C)N1N=O (configuration not stated)	active
Cc1ccc(NC(N)=O)cc1	inactive; active
O=c1oc2c(O)c(O)cc3c(=O)oc4c(O)c(O)cc1c4c23	inactive
O=C1O[C@H]([C@@H](O)CO)C(O)=C1O	inactive
CCCCC(CC)CO (configuration not stated)	inactive; active
CC(C)CON=O	active; inactive
CN(C)CCN(Cc1cccs1)c1ccccn1	inactive; active
C=C(Cl)CSC(=S)N(CC)CC	active; inactive

SMILES	outcome
C=C(C)[C@H]1CC=C(C)CC1	inactive; active
CCC(Cl)CCC(Cl)C(Cl)CC(Cl)C(Cl)C(Cl)CCl (configuration not stated)	inactive; active
CCCCCCN(N=O)C(N)=O	active
NC(=O)c1cnccn1	inactive; active
CC1=CC(=C(c2ccc(N)cc2)c2ccc(N)cc2)C=CC1=N	active; inactive
COc1cc(-c2ccc(N=Nc3c(S(=O)(=O)O)cc4cc(S(=O)(=O)O)cc(N)c4c3O)c(OC)c2)ccc1N=Nc1c(S(=O)(=O)O)cc2cc(S(=O)(=O)O)cc(N)c2c1O	active
CN(C)c1ccc(Cc2ccc(N(C)C)cc2)cc1	active
O=[N+]([O-])c1ccc(-c2nc(N(CCO)CCO)c3ccccc3n2)s1	inactive; active
CC(C)CCC[C@@H](C)[C@H]1CC[C@H]2[C@@H]3CC=C4C[C@@H](OC(=O)Cc5ccc(N(CCCl)CCCl)cc5)CC[C@]4(C)[C@H]3CC[C@]12C	inactive; active
CNC(=O)O/N=C/C(C)(C)SC	inactive
CCN(N=O)C(N)=O	active; inactive
C=C(Cl)Cl	active; inactive
ClC1C2(Cl)C3C4C5OC5C5C4C1(Cl)C(Cl)(C53)C2(Cl)Cl (configuration not stated)	active
CCCc1cc(=O)[nH]c(=S)[nH]1	inactive; active
O=[N+]([O-])c1cc([As](=O)(O)O)ccc1O	inactive
Cc1ccc(Cl)cc1N	inactive; active
CCCN(N=O)C(=N)N[N+](=O)[O-]	active; inactive
ClC=C(Cl)Cl	inactive; active
Nc1ccc2c(n1)[nH]c1ccccc12	active
CC(C)CCCCCCOC(=O)c1ccccc1C(=O)OCCCCCCC(C)C	inactive; active
COc1ccc([N+](=O)[O-])cc1N	active; inactive
Nc1ccc2nc3ccccn3c2n1	active
CCCN(N=O)C(N)=O	active
CC(N)=S	inactive; active
O=C/C=C/c1ccccc1	inactive
C=CC(OC(C)=O)c1ccc2c(c1)OCO2 (configuration not stated)	active

SMILES	outcome
CC(C)Oc1ccc(Nc2ccccc2)cc1	inactive; active
C=Cc1cccc(C)c1	inactive; active
CN(CCCC(=O)O)N=O	inactive
CC1CN(N=O)C(=O)NC1=O (configuration not stated)	active
CC(C)(Oc1ccc(C2CCCc3ccccc32)cc1)C(=O)O (configuration not stated)	inactive
NC(=O)N(CCO)N=O	active
CC(O)CCl (configuration not stated)	active
O=[O+][O-]	active; inactive
NN	active; inactive
COP(=S)(OC)SCn1nnc2ccccc2c1=O	active; inactive
Nc1ccc2ccccc2c1	active; inactive
Cc1ccccc1S(N)(=O)=O	inactive
CC1CO1 (configuration not stated)	active
Cc1ncc[nH]1	inactive
O=[N+]([O-])c1ccc(Cl)cc1	active
CCCCCc1cc(O)c2c(c1)OC(C)(C)[C@@H]1CCC(C)=C[C@@H]21	inactive; active
O=[N+]([O-])c1ccc2c3c(cccc13)CC2	active
CCC(O)OC(O)CC (configuration not stated)	inactive; active
ClC(Cl)=C(Cl)C(Cl)=C(Cl)Cl	inactive; active
S=[Se]	active
C#C[C@]1(O)CC[C@H]2[C@@H]3CCc4cc(O)ccc4[C@H]3CC[C@@]21C	inactive
CC(N)=O	inactive; active
CN(C)c1ccc(N=Nc2ccccc2)cc1	active; inactive
O.O.O.O.O.O.O.O=S(=O)([O-])[O-].[Co+2]	active
O.O.O.O.O.O.O=S(=O)([O-])[O-].[Ni+2]	inactive; active
Cc1c(N)nc(C)c2c1[nH]c1ccccc12	active

SMILES	outcome
O=[N+]([O-])c1ccc2ncccc2c1	active
CSCCC(N)C(=O)O (configuration not stated)	inactive; active
CC(=O)c1ccc(S(=O)(=O)NC(=O)NC2CCCCC2)cc1	inactive
O=CCCCC=O	active
C/C=C/C=C/C=O	active
[N-]=[N+]=CC(=O)OC[C@H](N)C(=O)O	active
CCc1ccccc1	inactive
COc1c(Cl)c(Cl)c(Cl)c(Cl)c1Cl	active; inactive
CC(=O)Nc1cccc2c1-c1ccccc1C2	active; inactive
CCOc1ccccc1C(N)=O	inactive; active
c1ccc(Nc2ccc3ccccc3c2)cc1	inactive; active
C/C=C/C=C/C(=O)O	inactive
O=C(O)CN(CCN(CC(=O)O)CC(=O)O)CC(=O)O	inactive
CC(=O)Oc1ccccc1C(=O)O	inactive
C=CC#N	active
C=CCO	inactive
OC(O)C(Cl)(Cl)Cl	active
Cc1cc(=O)n(-c2ccccc2)n1C	inactive; active
O=NN1CCC(O)C1 (configuration not stated)	active
O	inactive
[Cl-].[Cl-].[Cl-].[Fe+3]	inactive
Cc1cc(Cl)ccc1N	inactive; active
Clc1ccc(Cl)cc1	inactive
O=c1cc(CO)occ1O	active; inactive
